In ChEMBL document CHEMBL1201862, “PubChem BioAssay data set” (2004):
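Dose response: 5 concentrations. Exposure: 48 h. Format: 96-well plates. Endpoint: linear interpolation; highest concentration if not reached. Abbreviation: GI50, concentration required for 50% inhibition of growth.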 Active and inactive are the calls of the source. Rule as the data show it: active = GI50 up to about 1.1 µM and inactive = higher.

What was measured:
Test in all cases: growth of human tumour cells (NCI), 48 h
COLO 205 = test system: COLO 205
DU-145 = test system: DU-145
HCC 2998 = test system: HCC 2998
HCT-116 = test system: HCT-116
HT-29 = test system: HT-29
IGROV-1 = test system: IGROV-1
NCI-H460 = test system: NCI-H460
NCI-H522 = test system: NCI-H522
NCI/ADR-RES = test system: NCI/ADR-RES
OVCAR-8 = test system: OVCAR-8
SF-539 = test system: SF-539
SK-MEL-28 = test system: SK-MEL-28
SK-MEL-2 = test system: SK-MEL-2
SN12C = test system: SN12C
SNB-75 = test system: SNB-75
SR = test system: SR
SW-620 = test system: SW-620
T47D = test system: T47D
UACC-257 = test system: UACC-257
UO-31 = test system: UO-31

SMILES	GI50 (COLO 205)	GI50 (DU-145)	GI50 (HCC 2998)	GI50 (HCT-116)	GI50 (HT-29)	GI50 (IGROV-1)	GI50 (NCI-H460)	GI50 (NCI-H522)	GI50 (NCI/ADR-RES)	GI50 (OVCAR-8)	GI50 (SF-539)	GI50 (SK-MEL-28)	GI50 (SK-MEL-2)	GI50 (SN12C)	GI50 (SNB-75)	GI50 (SR)	GI50 (SW-620)	GI50 (T47D)	GI50 (UACC-257)	GI50 (UO-31)
O=C(Cn1c(C(=O)c2ccccc2)nc2ccccc21)c1ccccc1	> 100 µM (inactive)	> 100 µM (inactive)	> 100 µM (inactive)	> 100 µM (inactive)	19.2 µM (inactive)	> 31.6 µM (inactive)	> 90.6 µM (inactive)	> 58.3 µM (inactive)	> 100 µM (inactive)	> 100 µM (inactive)	> 100 µM (inactive)	> 100 µM (inactive)	> 100 µM (inactive)	> 100 µM (inactive)	> 100 µM (inactive)	> 100 µM (inactive)	4.85 µM (inactive)	> 100 µM (inactive)	> 100 µM (inactive)	> 56.1 µM (inactive)
COc1ccc(OC)c2nc3c(C(=O)NCCN(C)C)cccc3nc12	2.37 µM (inactive)	5.21 µM (inactive)	5.77 µM (inactive)	1.79 µM (inactive)	1.8 µM (inactive)	4.59 µM (inactive)	3.24 µM (inactive)	2.61 µM (inactive)	5.25 µM (inactive)	2.54 µM (inactive)	4.5 µM (inactive)	7.83 µM (inactive)	8.45 µM (inactive)	4.11 µM (inactive)	11.7 µM (inactive)	2.17 µM (inactive)	1.77 µM (inactive)	14.1 µM (inactive)	3.88 µM (inactive)	2.72 µM (inactive)
CCN(CC)c1ccc2cc(-c3csc(-c4ccc(N(C)C)cc4)n3)c(=O)oc2c1	> 100 µM (inactive)	> 100 µM (inactive)	> 100 µM (inactive)	> 100 µM (inactive)	> 100 µM (inactive)	> 100 µM (inactive)	> 100 µM (inactive)	> 100 µM (inactive)	> 100 µM (inactive)	> 100 µM (inactive)	> 100 µM (inactive)	> 100 µM (inactive)	> 100 µM (inactive)	> 100 µM (inactive)	23.1 µM (inactive)	> 100 µM (inactive)	> 100 µM (inactive)	> 100 µM (inactive)	> 100 µM (inactive)	> 100 µM (inactive)
CCCCCCCCCc1cc(-c2ccc(C=O)s2)sc1-c1ccc(C=O)s1	20 µM (inactive)	26.7 µM (inactive)	35.6 µM (inactive)	16.6 µM (inactive)	39.5 µM (inactive)	21 µM (inactive)	25.1 µM (inactive)	15.9 µM (inactive)	19.6 µM (inactive)	10.4 µM (inactive)	41.1 µM (inactive)	33.7 µM (inactive)	25.5 µM (inactive)	32.5 µM (inactive)	27 µM (inactive)	4.08 µM (inactive)	30.2 µM (inactive)	17.1 µM (inactive)	13.6 µM (inactive)	17.7 µM (inactive)
CCN(CC)CC(=O)Nc1c(C(N)=O)nnn1Cc1cc(Cl)c(C(=O)c2ccc(Cl)cc2)c(Cl)c1	16.9 µM (inactive)	30.8 µM (inactive)	17.7 µM (inactive)	16.5 µM (inactive)	19.6 µM (inactive)	21.4 µM (inactive)		18.1 µM (inactive)	15.8 µM (inactive)	17.7 µM (inactive)	16.5 µM (inactive)	18.5 µM (inactive)	14.9 µM (inactive)	22.6 µM (inactive)	21 µM (inactive)	23.8 µM (inactive)	19.2 µM (inactive)	15.9 µM (inactive)	18.1 µM (inactive)	13.7 µM (inactive)
CCCCCCCCCCCC(=O)NCc1ccc(OC(=O)CCCCCCCCCCC)c(OC)c1	35.6 µM (inactive)	> 79.3 µM (inactive)	> 64.6 µM (inactive)	65.2 µM (inactive)	37.8 µM (inactive)	4.21 µM (inactive)	> 100 µM (inactive)	2.63 µM (inactive)	> 100 µM (inactive)	67.9 µM (inactive)	3.56 µM (inactive)	> 81.7 µM (inactive)	> 82.8 µM (inactive)	> 88.3 µM (inactive)	> 100 µM (inactive)	11.1 µM (inactive)	> 100 µM (inactive)	32.2 µM (inactive)	> 100 µM (inactive)	> 70 µM (inactive)
Cn1c(=O)oc2cc(Br)ccc21	> 100 µM (inactive)	> 100 µM (inactive)	> 100 µM (inactive)	> 100 µM (inactive)	> 100 µM (inactive)	> 100 µM (inactive)	> 100 µM (inactive)	> 100 µM (inactive)	> 100 µM (inactive)	> 100 µM (inactive)	> 100 µM (inactive)	> 100 µM (inactive)	> 100 µM (inactive)	> 100 µM (inactive)	> 100 µM (inactive)	> 100 µM (inactive)	> 100 µM (inactive)	> 100 µM (inactive)	> 100 µM (inactive)	> 100 µM (inactive)
C1CSC2=C(S1)SC1=C(S2)SC(=C2SC3=C(SC4=C(SCCS4)S3)S2)S1	> 100 µM (inactive)	> 100 µM (inactive)	> 100 µM (inactive)	> 100 µM (inactive)	> 100 µM (inactive)	> 100 µM (inactive)	> 100 µM (inactive)	> 100 µM (inactive)	> 100 µM (inactive)	> 100 µM (inactive)	> 100 µM (inactive)	> 100 µM (inactive)	74.1 µM (inactive)	> 100 µM (inactive)	37.7 µM (inactive)	87.7 µM (inactive)	> 100 µM (inactive)	> 100 µM (inactive)	> 100 µM (inactive)	> 100 µM (inactive)
COc1ccc2oc(S(=O)(=O)N3CC(CCl)c4ccc([N+](=O)[O-])cc43)cc2c1 (stereo not drawn)	0.105 µM (active)	0.0883 µM (active)	0.256 µM (active)	0.0908 µM (active)	0.146 µM (active)	0.0815 µM (active)	0.102 µM (active)	0.0292 µM (active)	0.0596 µM (active)	0.22 µM (active)	0.0607 µM (active)		0.12 µM (active)	0.179 µM (active)	0.0933 µM (active)	0.0521 µM (active)	0.0841 µM (active)	20.2 µM (inactive)	0.073 µM (active)	0.783 µM (active)
O=c1[nH]cnc2c1ncn2[C@@H]1C[C@H]1CO	> 100 µM (inactive)	> 100 µM (inactive)	> 100 µM (inactive)	> 100 µM (inactive)	> 100 µM (inactive)	> 100 µM (inactive)	> 100 µM (inactive)	> 100 µM (inactive)	> 100 µM (inactive)	> 100 µM (inactive)	> 100 µM (inactive)	> 100 µM (inactive)	> 100 µM (inactive)	> 100 µM (inactive)	> 100 µM (inactive)	> 100 µM (inactive)	> 100 µM (inactive)	> 100 µM (inactive)	> 100 µM (inactive)	> 100 µM (inactive)
